Measurements published in patent US6737383B1, “Herbicidal oxadiazolidines” (priority 1999, dated 2004).

Key:
[1] = system: giant foxtail; assay: Test B pre/postemergence giant foxtail; assay type: in vivo, Setaria faberii
In short: (§1)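 Test chemicals in a non-phytotoxic solvent mixture with surfactant were sprayed preemergence onto planted seeds and postemergence onto plants 2 to 18 cm tall (1- to 4-leaf stage). After twelve to sixteen days in a greenhouse, injury was visually rated against untreated controls from 0 (no effect) to 10 (complete control).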

[2] = system: wild oat; assay: Test E wild oat; assay type: in vivo, Avena fatua; settings: Preemergence, Rate 250 g/ha
[3] = system: rice; assay: Test B flood test rice; assay type: in vivo, Oryza sativa; settings: for Plant response rating, Rice (0 to 10 scale, 0 is no effect, 10 is complete control) / Rice plant response rating (0 to 10 scale, 0 is no effect, 10 is complete control): visual evaluation after twelve to sixteen days; for Rice plant response rating (0 to 10 scale, 0 is no effect, 10 is complete control): under heading Pre-emergence
In short: (§2)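 Flood test on plants grown to the 2-leaf stage; treated plants kept in greenhouse twelve to sixteen days, then visually rated against controls on a 0 (no effect) to 10 (complete control) scale.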

[4] = system: winter wheat; assay: Test E winter wheat; assay type: in vivo, Triticum aestivum; settings: Preemergence, Rate 250 g/ha
[5] = system: bamyardgrass; assay: Test B flood test barnyardgrass; assay type: in vivo, Echinochloa crus-galli; settings: for Plant response rating, Barnyardgrass (0 to 10 scale, 0 is no effect, 10 is complete control) / Barnyardgrass plant response rating (0 to 10 scale, 0 is no effect, 10 is complete control): visual evaluation after twelve to sixteen days; for Barnyardgrass plant response rating (0 to 10 scale, 0 is no effect, 10 is complete control): under heading Pre-emergence
In short: as §2

[6] = system: soybean; assay: Test B pre/postemergence soybean; assay type: in vivo, Glycine max
In short: as §1

[7] = system: blackgrass; assay: Test E blackgrass; assay type: in vivo, Alopecurus myosuroides; settings: Preemergence, Rate 250 g/ha
[8] = system: green foxtail; assay: Test E green foxtail; assay type: in vivo, Setaria viridis; settings: Preemergence, Rate 250 g/ha
[9] = system: winter barley; assay: Test E winter barley; assay type: in vivo, Hordeum vulgare; settings: Preemergence, Rate 250 g/ha
[10] = system: Italian ryegrass; assay: Test E Italian ryegrass; assay type: in vivo, Lolium multiflorum; settings: Preemergence, Rate 250 g/ha
[11] = Preemergence, Rate 62 g/ha, scale of 0 to 10 where 0 is no effect and 10 is complete control
[12] = Preemergence, Rate 250 g/ha, scale of 0 to 10 where 0 is no effect and 10 is complete control
[13] = Preemergence, Rate 500 g/ha, scale of 0 to 10 where 0 is no effect and 10 is complete control
[14] = Rate 62 g/ha, Postemergence, scale 0 to 10, 0 no effect, 10 complete control
[15] = Rate 125 g/ha, Postemergence, scale of 0 to 10 where 0 is no effect and 10 is complete control
[16] = Rate 125 g/ha, Preemergence, scale of 0 to 10 where 0 is no effect and 10 is complete control
[17] = Rate 250 g/ha, Postemergence, scale of 0 to 10 where 0 is no effect and 10 is complete control
[18] = Rate 62 g/ha, headed Pre-emergence (flood test species), scale 0 to 10 (0 no effect, 10 complete control)
[19] = Rate 125 g/ha, Pre-emergence, flood test species, scale 0 to 10 where 0 is no effect and 10 is complete control
[20] = Rate 250 g/ha, Pre-emergence, flood-test species, scale 0 to 10, 0 is no effect, 10 is complete control
[21] = Rate 500 g/ha, Pre-emergence, flood test species, scale 0 to 10 (0 no effect, 10 complete control)
[22] = Postemergence, Rate 62 g/ha, scale 0 to 10, 0 is no effect, 10 is complete control
[23] = Postemergence, Rate 125 g/ha, scale of 0 to 10 where 0 is no effect and 10 is complete control
[24] = Postemergence, Rate 250 g/ha, scale of 0 to 10, 0 is no effect, 10 is complete control
[25] = Preemergence, Rate 125 g/ha, scale of 0 to 10 where 0 is no effect and 10 is complete control
[26] = Preemergence, Rate 250 g/ha, scale 0 to 10 (0 no effect, 10 complete control)
[27] = Rate 62 g/ha, flood test species, Pre-emergence
[28] = Rate 125 g/ha, flood test species
[29] = Rate 250 g/ha, Pre-emergence (flood test species), scale 0 to 10, 0 is no effect, 10 is complete control
[30] = Rate 500 g/ha, Pre-emergence section of Table B, 0 to 10 scale (0 no effect, 10 complete control)
[31] = Rate 500 g/ha, Postemergence, scale 0 to 10, 0 is no effect, 10 is complete control
[32] = Preemergence, Rate 250 g/ha, scale 0 (no effect) to 10 (complete control)
[33] = Rate 62 g/ha, Preemergence, scale 0 to 10
[34] = Rate 250 g/ha, Postemergence, scale 0 to 10, 0 is no effect, 10 is complete control
[35] = Rate 500 g/ha, Preemergence, scale 0 to 10 (0 no effect, 10 complete control)
[36] = Pre-emergence, Rate 62 g/ha, scale 0 to 10, 0 is no effect, 10 is complete control
[37] = Rate 125 g/ha, Pre-emergence section (flood test species), scale 0 to 10, 0 no effect, 10 complete control

Structure (SMILES): CCC=CCn1c(=O)on(C(=O)N(c2ccc(F)cc2)C(C)C)c1=O [Compound 286]
- Giant foxtail plant response rating [1, 11]: 8
- Giant foxtail plant response rating [1, 12]: 10
- Plant response rating, Giant foxtail [1, 13]: 10
- Giant foxtail plant response rating [1, 14]: 0
- Giant foxtail plant response rating [1, 15]: 0
- Giant foxtail plant response rating [1, 16]: 10
- Plant response rating, Giant foxtail [1, 17]: 2
- Wild oat plant response rating (0 to 100 scale) [2]: 10
- Rice plant response rating [3, 18]: 0
- Rice plant response rating [3, 19]: 0
- Rice plant response rating [3, 20]: 0
- Rice plant response rating [3, 21]: 0
- Wheat (winter) plant response rating (0 to 100 scale) [4]: 40
- Barnyardgrass plant response rating [5, 18]: 0
- Barnyardgrass plant response rating [5, 19]: 0
- Barnyardgrass plant response rating [5, 20]: 0
- Barnyardgrass plant response rating [5, 21]: 4
- Soybean plant response rating [6, 11]: 0
- Soybean plant response rating [6, 12]: 0
- Plant response rating, Soybean [6, 13]: 0
- Soybean plant response rating [6, 14]: 1
- Soybean plant response rating [6, 15]: 1
- Soybean plant response rating [6, 16]: 0
- Plant response rating, Soybean [6, 17]: 2
- Blackgrass plant response rating (0 to 100 scale) [7]: 10
- Green foxtail plant response rating (0 to 100 scale) [8]: 55
- Barley (winter) plant response rating (0 to 100 scale) [9]: 5
- I. Ryegrass plant response rating (0 to 100 scale) [10]: 40

Structure (SMILES): CC(C)N(C(=O)n1oc(=O)n(Cc2nnc(Cl)s2)c1=O)c1ccc(F)cc1 [Compound 646]
- Plant response rating, Giant foxtail [1, 22]: 0
- Giant foxtail plant response rating [1, 23]: 0
- Giant foxtail plant response rating [1, 24]: 0
- Plant response rating, Giant foxtail ([1]; Postemergence, Rate 500 g/ha, scale of 0 to 10 where 0 is no effect and 10 is complete control): 0
- Giant foxtail plant response rating [1, 11]: 0
- Giant foxtail plant response rating [1, 25]: 0
- Plant response rating, Giant foxtail [1, 26]: 0
- Plant response rating, Giant foxtail [1, 13]: 0
- Plant response rating, Rice (0 to 10 scale, 0 is no effect, 10 is complete control) [3, 27]: 0
- Rice plant response rating (0 to 10 scale, 0 is no effect, 10 is complete control) [3, 28]: 0
- Rice plant response rating [3, 29]: 0
- Rice plant response rating [3, 30]: 0
- Plant response rating, Barnyardgrass (0 to 10 scale, 0 is no effect, 10 is complete control) [5, 27]: 0
- Barnyardgrass plant response rating (0 to 10 scale, 0 is no effect, 10 is complete control) [5, 28]: 0
- Barnyardgrass plant response rating [5, 29]: 0
- Barnyardgrass plant response rating [5, 30]: 0
- Plant response rating, Soybean [6, 22]: 0
- Soybean plant response rating [6, 23]: 1
- Soybean plant response rating [6, 11]: 0
- Soybean plant response rating [6, 25]: 0
- Plant response rating, Soybean [6, 26]: 0
- Plant response rating, Soybean [6, 13]: 0

Structure (SMILES): C=C(Cn1c(=O)on(C(=O)N(c2ccccc2)C(C)C)c1=O)C(C)C [Compound 649]
- Plant response rating, Giant foxtail [1, 22]: 0
- Giant foxtail plant response rating [1, 23]: 2
- Giant foxtail plant response rating [1, 24]: 2
- Giant foxtail plant response rating [1, 11]: 0
- Plant response rating, Giant foxtail [1, 26]: 9
- Plant response rating, Giant foxtail [1, 13]: 9
- Giant foxtail plant response rating [1, 31]: 7
- Plant response rating, Rice (0 to 10 scale, 0 is no effect, 10 is complete control) [3, 27]: 0
- Rice plant response rating (0 to 10 scale, 0 is no effect, 10 is complete control) [3, 28]: 0
- Rice plant response rating [3, 29]: 0
- Rice plant response rating [3, 30]: 0
- Plant response rating, Barnyardgrass (0 to 10 scale, 0 is no effect, 10 is complete control) [5, 27]: 0
- Barnyardgrass plant response rating (0 to 10 scale, 0 is no effect, 10 is complete control) [5, 28]: 0
- Barnyardgrass plant response rating [5, 29]: 0
- Barnyardgrass plant response rating [5, 30]: 2
- Plant response rating, Soybean [6, 22]: 2
- Soybean plant response rating [6, 23]: 2
- Soybean plant response rating [6, 11]: 0
- Soybean plant response rating [6, 25]: 0
- Plant response rating, Soybean [6, 26]: 0
- Plant response rating, Soybean [6, 13]: 0
- Soybean plant response rating [6, 31]: 3

Structure (SMILES): CC(C)N(C(=O)n1oc(=O)n(CCCC#N)c1=O)c1ccc(F)cc1F [Compound 675]
- Plant response rating, Giant foxtail [1, 22]: 8
- Giant foxtail plant response rating [1, 23]: 9
- Giant foxtail plant response rating [1, 24]: 9
- Giant foxtail plant response rating [1, 11]: 9
- Plant response rating, Giant foxtail [1, 25]: 10
- Plant response rating, Giant foxtail [1, 13]: 10
- Giant foxtail plant response rating [1, 31]: 9
- Plant response rating, Rice (0 to 10 scale, 0 is no effect, 10 is complete control) [3, 27]: 0
- Rice plant response rating (0 to 10 scale, 0 is no effect, 10 is complete control) [3, 28]: 0
- Rice plant response rating [3, 29]: 0
- Rice plant response rating [3, 30]: 0
- Plant response rating, Barnyardgrass (0 to 10 scale, 0 is no effect, 10 is complete control) [5, 27]: 0
- Barnyardgrass plant response rating (0 to 10 scale, 0 is no effect, 10 is complete control) [5, 28]: 0
- Barnyardgrass plant response rating [5, 29]: 0
- Barnyardgrass plant response rating [5, 30]: 0
- Plant response rating, Soybean [6, 22]: 4
- Soybean plant response rating [6, 23]: 5
- Soybean plant response rating [6, 11]: 0
- Plant response rating, Soybean [6, 25]: 0
- Plant response rating, Soybean [6, 13]: 4
- Soybean plant response rating [6, 31]: 5

Structure (SMILES): CC(C)N(C(=O)n1oc(=O)n(CC2=NOCCO2)c1=O)c1ccc(F)cc1F [Compound 758]
- Plant response rating, Giant foxtail [1, 22]: 8
- Giant foxtail plant response rating [1, 23]: 9
- Plant response rating, Giant foxtail [1, 25]: 9
- Giant foxtail plant response rating [1, 32]: 10
- Giant foxtail plant response rating [1, 33]: 9
- Giant foxtail plant response rating [1, 34]: 9
- Giant foxtail plant response rating [1, 31]: 9
- Giant foxtail plant response rating [1, 35]: 10
- Rice plant response rating [3, 36]: 0
- Rice plant response rating [3, 37]: 0
- Rice plant response rating [3, 29]: 0
- Rice plant response rating [3, 30]: 0
- Barnyardgrass plant response rating [5, 36]: 0
- Barnyardgrass plant response rating [5, 37]: 0
- Barnyardgrass plant response rating [5, 29]: 0
- Barnyardgrass plant response rating [5, 30]: 0
- Plant response rating, Soybean [6, 22]: 4
- Plant response rating, Soybean [6, 25]: 0
- Soybean plant response rating [6, 32]: 0
- Soybean plant response rating [6, 33]: 0
- Soybean plant response rating [6, 34]: 5
- Soybean plant response rating [6, 31]: 5
- Soybean plant response rating [6, 35]: 0
